Target: hTDO2 in human glioblastoma A172 cells (Homo sapiens (Human), UniProt P48775)
Test: Cellular assay for TDO2 activity determination in A172 cells
Type: cell-based
Conditions: overnight incubation, kynurenine absorbance at 480 nm
Procedure: The compounds of formula I inhibit the activity of human TDO2 in cells that constitutively express TDO2, such as A172 cells. A172 is a cell line derived from human brain glioblastoma cells. The cells are available from the American Type Culture Collection (ATCC®) as CRL-1620™.
The assay (adapted from Pilotte L et al., Proc Natl Acad Sci USA, 2012, 109(7), 2497-502) was performed in 96-well flat bottom plates seeded with human glioblastoma A172 cells, naturally expressing hTDO2 (prepared as described in Tilman et al., Mol Cancer, 2007, 17(6), 80), at a concentration of 1.25×10^4 cells/well in a final volume of 200 μL. To determine TDO, the cells were incubated overnight at 37° C. at 5% CO2 in IMDM (Invitrogen) supplemented with 2% FBS and 2% penicillin/streptomycin in the presence of the compounds of the present invention, at different concentrations.
The plates were then centrifuged 5 min at 1000 rpm, and 100 μL of the supernatant were collected in a conical plate, 30 μL of TCA 30% were added and a further centrifuged at 3000×g for 10 minutes. 100 μL of the supernatant were collected in a flat bottomed plate and 100 μL of 2% (w/v) 4-(dimethylamino)-benzaldehyde in acetic acid and incubated for 5 min at room temperature. Kynurenine concentrations were determined by measuring the absorbance at 480 nm. A standard curve was made with pure kynurenine. The TDO activity was measured as described above using ten serial concentrations of the compounds of the present invention. Data were fitted using the Prism™ software (GraphPad Software, Inc.) using standard parameters.

hTDO2 in human glioblastoma A172 cells, sequence (P48775 whole entry): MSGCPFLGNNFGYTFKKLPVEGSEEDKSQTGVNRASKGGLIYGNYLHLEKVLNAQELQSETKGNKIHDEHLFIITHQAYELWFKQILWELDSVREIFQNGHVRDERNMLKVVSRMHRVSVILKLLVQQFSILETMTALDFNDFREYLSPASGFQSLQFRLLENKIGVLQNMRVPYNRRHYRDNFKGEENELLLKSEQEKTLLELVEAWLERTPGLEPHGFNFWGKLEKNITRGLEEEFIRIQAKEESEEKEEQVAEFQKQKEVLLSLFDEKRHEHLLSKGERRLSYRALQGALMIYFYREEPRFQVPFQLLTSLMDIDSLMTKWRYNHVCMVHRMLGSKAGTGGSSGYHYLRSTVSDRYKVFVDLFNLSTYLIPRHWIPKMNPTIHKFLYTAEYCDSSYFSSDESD

| IC50 | Structure (SMILES) |
| --- | --- |
| 957 nM | N[C@H]1CN(C(=O)CCNS(=O)(=O)c2ccc(-c3c[nH]c4cc(F)ccc34)cc2)C[C@H]1F (single isomer, unassigned) [Example 172, (−)-N-(3-((3S.4R)-3-amino-4-fluoropyrrolidin-1-yl)-3-oxopropyl)-4-(6-fluoro-1H-indol-3-yl)benzenesulfonamide] |
| 919 nM | N[C@H]1CN(C(=O)CCNS(=O)(=O)c2ccc(-c3c[nH]c4cc(F)ccc34)cc2)C[C@H]1F (single isomer, unassigned) [Example 173] |
| 171 nM | C[S+]([O-])CCNS(=O)(=O)c1ccc(-c2c[nH]c3cc(F)ccc23)cc1 (single isomer, unassigned; (+)) [Example 160, (+)-4-(6-fluoro-1H-indol-3-yl)-N-(2-(methylsulfinyl)-ethyl) benzenesulfonamide] |
| 220 nM | C[S+]([O-])CCNS(=O)(=O)c1ccc(-c2c[nH]c3cc(F)ccc23)cc1 (single isomer, unassigned; (-)) [Example 159, (−)-4-(6-fluoro-1H-indol-3-yl)-N-(2-(methylsulfinyl)-ethyl)benzenesulfonamide] |
| 230 nM | N[C@H]1CN(S(=O)(=O)c2ccc(-c3c[nH]c4cc(F)ccc34)cc2)C[C@H]1F (stereo in doubt) [Example 81, (+)-(cis)-4-fluoro-1-{[4-(6-fluoro-1H-indol-3-yl)phenyl]-sulfonyl}pyrrolidin-3-amine] |
| 320 nM | C[C@@H]1CN(S(=O)(=O)c2ccc(-c3c[nH]c4cc(F)ccc34)cc2)C[C@H](C)N1 [Example 11, 3-(4-(((cis)-3,5-dimethylpiperazin-1-yl)sulfonyl)phenyl)-6-fluoro-1H-indole] |
| 140 nM | O=S(=O)(c1ccc(-c2c[nH]c3cc(F)ccc23)cc1)N1CCNC(CO)C1 (stereo not drawn) [Example 12, (4-((4-(6-fluoro-1H-indol-3-yl)phenyl)sulfonyl)piperazin-2-yl)-methanol] |
| 210 nM | O=S(=O)(c1ccc(-c2c[nH]c3cc(F)ccc23)cc1)N1CCNCC1CO (stereo not drawn) [Example 13, (1-((4-(6-fluoro-1H-indol-3-yl)phenyl)sulfonyl)piperazin-2-yl)methanol] |
| 190 nM | C[C@@H]1CN(S(=O)(=O)c2ccc(-c3c[nH]c4cc(F)ccc34)cc2)C[C@@H](C)N1 [Example 14, (3R,5R)-3-[4-(3,5-dimethyl-piperazine-1-sulfonyl)-phenyl]-6-fluoro-1H-indole] |
| 220 nM | C[C@H]1CN(S(=O)(=O)c2ccc(-c3c[nH]c4cc(F)ccc34)cc2)C[C@H](C)N1 [Example 15, 3-(4-(((3S,5S)-3,5-dimethylpiperazin-1-yl)sulfonyl)phenyl)-6-fluoro-1H-indole] |
| 200 nM | O=S(=O)(c1ccc(-c2c[nH]c3cc(F)ccc23)cc1)N1CCN[C@@H](CO)C1 [Example 17, (R)-(4-((4-(6-fluoro-1H-indol-3-yl)phenyl)sulfonyl)piperazin-2-yl)methanol] |
| 1000 nM | CS(=O)(=O)N1CCN(S(=O)(=O)c2ccc(-c3c[nH]c4cc(F)ccc34)cc2)CC1 [Example 19, 6-fluoro-3-(4-((4-(methylsulfonyl)piperazin-1-yl)sulfonyl)phenyl)-1H-indole] |
| 250 nM | O=S(=O)(c1ccc(-c2c[nH]c3ccccc23)cc1)N1CCNCC1 [Example 20, 3-(4-(piperazin-1-ylsulfonyl)phenyl)-1H-indole] |
| 600 nM | O=S(=O)(c1ccc(-c2c[nH]c3cc(F)ccc23)c(F)c1)N1CCNCC1 [Example 22, 6-fluoro-3-(2-fluoro-4-(piperazin-1-ylsulfonyl)-phenyl)-1H-indole] |
| 630 nM | O=S(=O)(c1cc(-c2c[nH]c3cc(F)ccc23)ccc1Cl)N1CCNCC1 [Example 23, 3-(4-chloro-3-(piperazin-1-ylsulfonyl)phenyl)-6-fluoro-1H-indole] |
| 510 nM | O=S(=O)(c1ccc(-c2c[nH]c3cc(F)ccc23)cc1C(F)(F)F)N1CCNCC1 [Example 24, 6-fluoro-3-(4-(piperazin-1-ylsulfonyl)-3-(trifluoromethyl)-phenyl)-1H-indole] |
| 1400 nM | Cc1cc(S(=O)(=O)N2CCNCC2)ccc1-c1c[nH]c2cc(F)ccc12 [Example 25, 6-fluoro-3-(2-methyl-4-(piperazin-1-ylsulfonyl)-phenyl)-1H-indole] |
| 160 nM | CN(CCC(N)=O)S(=O)(=O)c1ccc(-c2c[nH]c3cc(F)ccc23)cc1 [Example 27, 3-(4-(6-fluoro-1H-indol-3-yl)-N-methylphenylsulfonamido)-propanamide] |
| 220 nM | O=S(=O)(c1ccc(-c2c[nH]c3cc(F)ccc23)cc1F)N1CCNCC1 [Example 28, 6-fluoro-3-(3-fluoro-4-(piperazin-1-ylsulfonyl)-phenyl)-1H-indole] |
| 190 nM | COc1cc(-c2c[nH]c3cc(F)ccc23)ccc1S(=O)(=O)N1CCNCC1 [Example 29, 6-fluoro-3-(3-methoxy-4-(piperazin-1-ylsulfonyl)-phenyl)-1H-indole] |

| IC50 | Structure (SMILES) |
| --- | --- |
| 3900 nM | Cc1cc(-c2c[nH]c3cc(F)ccc23)cc(S(=O)(=O)NCCN)c1 [Example 30, N-(2-aminoethyl)-3-(6-fluoro-1H-indol-3-yl)-5-methyl-benzenesulfonamide] |
| 740 nM | CS(=O)(=O)c1cccc(-c2c[nH]c3cc(F)ccc23)c1 [Example 31, 6-fluoro-3-(3-(methylsulfonyl)phenyl)-1H-indole] |
| 910 nM | COc1ccc(-c2c[nH]c3cc(F)ccc23)cc1S(=O)(=O)NCCN [Example 33] |
| 3700 nM | N#Cc1cc(S(=O)(=O)N2CCNCC2)ccc1-c1c[nH]c2cc(F)ccc12 [Example 37, 2-(6-fluoro-1H-indol-3-yl)-5-(piperazin-1-ylsulfonyl)benzonitrile] |
| 2500 nM | NCCNS(=O)(=O)c1cc(Cl)cc(-c2c[nH]c3cc(F)ccc23)c1 [Example 38, N-(2-aminoethyl)-3-chloro-5-(6-fluoro-1H-indol-3-yl)-benzenesulfonamide] |
| 2900 nM | NCCNS(=O)(=O)c1cc(-c2c[nH]c3cc(F)ccc23)ccc1O [Example 39, N-(2-aminoethyl)-5-(6-fluoro-1H-indol-3-yl)-2-hydroxy-benzenesulfonamide] |
| 990 nM | NC(=O)c1cc(-c2c[nH]c3cc(F)ccc23)ccc1S(=O)(=O)N1CCNCC1 [Example 41, 5-(6-fluoro-1H-indol-3-yl)-2-(piperazin-1-ylsulfonyl)benzamide] |
| 260 nM | CN1CCN(S(=O)(=O)c2ccc(-c3c[nH]c4cc(F)ccc34)cc2)CC1=O [Example 42, 4-((4-(6-fluoro-1H-indol-3-yl)phenyl)sulfonyl)-1-methylpiperazin-2-one] |
| 410 nM | NCCNS(=O)(=O)c1cc(-c2c[nH]c3cc(F)ccc23)ccc1F [Example 43, N-(2-aminoethyl)-2-fluoro-5-(6-fluoro-1H-indol-3-yl)-benzenesulfonamide] |
| 430 nM | NCCNS(=O)(=O)c1cc(F)cc(-c2c[nH]c3cc(F)ccc23)c1 [Example 44, N-(2-aminoethyl)-3-fluoro-5-(6-fluoro-1H-indol-3-yl)-benzenesulfonamide] |
| 230 nM | O=S(=O)(c1ccc(-c2c[nH]c3cc(F)ccc23)cc1Cl)N1CCNCC1 [Example 45, 3-(3-chloro-4-(piperazin-1-ylsulfonyl)phenyl)-6-fluoro-1H-indole] |
| 220 nM | O=S(=O)(NC1CCOCC1)c1ccc(-c2c[nH]c3cc(F)ccc23)cc1 [Example 46, 4-(6-fluoro-1H-indol-3-yl)-N-(tetrahydro-pyran-4-yl)-benzenesulfonamide] |
| 9600 nM | CN(C)C(=O)n1cc(-c2ccc(S(=O)(=O)N3CCNCC3)cc2)c2ccc(F)cc21 [Example 47, 6-fluoro-N,N-dimethyl-3-(4-(piperazin-1-ylsulfonyl)phenyl)-1H-indole-1-carboxamide] |
| 440 nM | O=c1[nH]nc(CCNS(=O)(=O)c2ccc(-c3c[nH]c4cc(F)ccc34)cc2)o1 [Example 48, 4-(6-fluoro-1H-indol-3-yl)-N-(2-(5-oxo-4,5-dihydro-1,3,4-oxadiazol-2-yl)ethyl)benzenesulfonamide] |
| 210 nM | CN(C)C(=O)CCNS(=O)(=O)c1ccc(-c2c[nH]c3cc(F)ccc23)cc1 [Example 49, 3-(4-(6-fluoro-1H-indol-3-yl)phenylsulfonamido)-N,N-dimethylpropanamide] |
| 630 nM | CCC(=O)n1cc(-c2ccc(S(=O)(=O)N3CCNCC3)cc2)c2ccc(F)cc21 [Example 51, 1-(6-fluoro-3-(4-(piperazin-1-ylsulfonyl)phenyl)-1H-indol-1-yl)-propan-1-one] |
| 1700 nM | CC(C)CC(=O)n1cc(-c2ccc(S(=O)(=O)N3CCNCC3)cc2)c2ccc(F)cc21 [Example 52, 1-(6-fluoro-3-(4-(piperazin-1-ylsulfonyl)phenyl)-1H-indol-1-yl)-3-methylbutan-1-one] |
| 210 nM | NC(=O)CCCNS(=O)(=O)c1ccc(-c2c[nH]c3cc(F)ccc23)cc1 [Example 53, 4-(4-(6-fluoro-1H-indol-3-yl)phenylsulfonamido)butanamide] |
| 250 nM | CN(CCCC(N)=O)S(=O)(=O)c1ccc(-c2c[nH]c3cc(F)ccc23)cc1 [Example 54, 4-(4-(6-fluoro-1H-indol-3-yl)-N-methylphenylsulfonamido)-butanamide] |

Source: patent US10544095B2 (Pfizer Inc., priority 2015, dated 2020)
